From patent publication US8501804B2, “Bicyclic compound” (Takeda Pharmaceutical Company Limited, priority 2008, dated 2013)

Legend:
human ACC2 (Nd) = biological target: T1, human ACC2 (Nd) (Homo sapiens, UniProt O00763); assay: ACC2 inhibitory activity (malachite green); assay type: biochemical; details: test compound 10 μM; for inhibition at 10 µM: read-out: ACC2 10 μM inhibitory rate (%)
T1 construct: His6 (from vector pFAST-BacHTa); made in house; host or cells: SF-9 insect cells, recombinant baculovirus BAC-ACC2 (Nd)
T1 sequence (O00763 117-2458 limits assumed): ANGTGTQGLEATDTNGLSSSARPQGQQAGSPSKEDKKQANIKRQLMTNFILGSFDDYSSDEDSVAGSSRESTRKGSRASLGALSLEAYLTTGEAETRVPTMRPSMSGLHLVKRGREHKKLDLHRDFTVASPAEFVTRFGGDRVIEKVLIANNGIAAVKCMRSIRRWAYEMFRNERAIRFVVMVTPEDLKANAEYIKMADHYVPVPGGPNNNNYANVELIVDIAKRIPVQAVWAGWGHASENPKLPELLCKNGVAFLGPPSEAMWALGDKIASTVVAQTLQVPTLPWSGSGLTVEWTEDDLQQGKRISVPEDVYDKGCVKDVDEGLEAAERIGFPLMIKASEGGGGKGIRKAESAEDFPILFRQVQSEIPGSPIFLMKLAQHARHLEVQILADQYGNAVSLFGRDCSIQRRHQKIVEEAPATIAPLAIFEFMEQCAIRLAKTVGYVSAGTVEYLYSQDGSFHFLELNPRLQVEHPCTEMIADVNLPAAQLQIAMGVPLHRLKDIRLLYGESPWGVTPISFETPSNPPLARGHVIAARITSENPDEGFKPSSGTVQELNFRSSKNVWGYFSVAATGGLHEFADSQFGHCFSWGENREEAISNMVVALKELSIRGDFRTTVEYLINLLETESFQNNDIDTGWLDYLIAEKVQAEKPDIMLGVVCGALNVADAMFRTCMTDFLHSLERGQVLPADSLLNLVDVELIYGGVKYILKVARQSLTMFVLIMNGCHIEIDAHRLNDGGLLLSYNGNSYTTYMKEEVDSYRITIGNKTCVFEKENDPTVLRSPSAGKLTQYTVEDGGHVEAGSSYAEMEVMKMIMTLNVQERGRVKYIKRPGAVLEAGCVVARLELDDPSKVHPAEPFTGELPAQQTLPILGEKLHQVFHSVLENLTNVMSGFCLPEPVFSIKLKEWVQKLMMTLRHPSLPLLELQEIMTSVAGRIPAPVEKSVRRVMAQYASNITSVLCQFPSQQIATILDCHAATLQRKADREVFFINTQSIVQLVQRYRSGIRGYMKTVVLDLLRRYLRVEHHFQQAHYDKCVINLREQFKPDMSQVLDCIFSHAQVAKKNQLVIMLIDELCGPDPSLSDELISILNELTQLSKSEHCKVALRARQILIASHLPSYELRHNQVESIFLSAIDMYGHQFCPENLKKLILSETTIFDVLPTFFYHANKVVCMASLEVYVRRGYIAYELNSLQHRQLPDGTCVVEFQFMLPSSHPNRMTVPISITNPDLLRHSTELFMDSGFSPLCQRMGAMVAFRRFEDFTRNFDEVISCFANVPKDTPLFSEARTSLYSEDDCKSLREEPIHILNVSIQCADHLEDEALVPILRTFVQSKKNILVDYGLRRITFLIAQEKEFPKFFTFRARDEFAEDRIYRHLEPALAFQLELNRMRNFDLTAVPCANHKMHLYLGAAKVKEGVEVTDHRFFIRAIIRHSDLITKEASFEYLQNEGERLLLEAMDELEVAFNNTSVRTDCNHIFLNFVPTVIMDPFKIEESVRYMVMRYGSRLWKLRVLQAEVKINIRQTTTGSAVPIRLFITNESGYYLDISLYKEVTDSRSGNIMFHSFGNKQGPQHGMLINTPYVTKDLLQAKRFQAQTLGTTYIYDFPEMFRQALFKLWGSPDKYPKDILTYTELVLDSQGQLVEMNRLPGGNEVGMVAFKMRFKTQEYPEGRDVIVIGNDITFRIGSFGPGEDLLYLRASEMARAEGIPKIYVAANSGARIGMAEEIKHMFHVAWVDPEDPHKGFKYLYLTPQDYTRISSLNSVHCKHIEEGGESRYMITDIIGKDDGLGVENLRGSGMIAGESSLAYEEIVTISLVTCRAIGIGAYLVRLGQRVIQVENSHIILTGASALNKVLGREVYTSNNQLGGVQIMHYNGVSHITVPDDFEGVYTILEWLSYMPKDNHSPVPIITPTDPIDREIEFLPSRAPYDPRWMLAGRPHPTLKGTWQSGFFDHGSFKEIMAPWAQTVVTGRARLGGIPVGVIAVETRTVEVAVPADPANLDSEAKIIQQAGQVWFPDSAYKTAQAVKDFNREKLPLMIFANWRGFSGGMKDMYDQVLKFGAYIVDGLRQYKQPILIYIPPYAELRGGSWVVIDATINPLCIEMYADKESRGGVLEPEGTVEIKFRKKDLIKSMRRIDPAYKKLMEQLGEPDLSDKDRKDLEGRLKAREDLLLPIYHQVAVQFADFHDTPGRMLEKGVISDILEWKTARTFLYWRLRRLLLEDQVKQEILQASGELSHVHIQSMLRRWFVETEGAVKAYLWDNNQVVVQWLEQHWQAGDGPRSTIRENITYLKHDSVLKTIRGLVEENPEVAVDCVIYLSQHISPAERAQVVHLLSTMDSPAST
In short: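 Enzyme: N-terminally truncated human ACC2 lacking the mitochondrial targeting sequence, His-tagged, expressed in baculovirus-infected Sf9 cells and Ni-NTA purified. Working dilution 6.4 μg/ml in 50 mM HEPES pH 7.5, 10 mM MgCl2, 10 mM tripotassium citrate, 2 mM DTT, 0.75 mg/ml fatty-acid-free BSA. Test compound in DMSO.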

human ACC1 = biological target: T2, human ACC1 (Homo sapiens, UniProt Q13085); assay: ACC1 inhibitory activity (malachite green); assay type: biochemical; details: test compound 10 μM; for inhibition at 10 µM: read-out: ACC1 10 μM inhibitory rate (%)
T2 construct: His6 (from vector pFAST-BacHTc); made in house; host or cells: SF-9 insect cells, recombinant baculovirus BAC-ACC1
In short: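 His-tagged human ACC1 from baculovirus-infected Sf9 cells was Ni-NTA purified, diluted to 8 μg/ml, and preincubated with compound for 60 min at 30 °C in HEPES pH 7.5 buffer with MgCl2, citrate, DTT and BSA. Substrate solution (50 mM KHCO3, 200 μM ATP, 200 μM acetyl-CoA) was added for 20 min at 30 °C. Phosphate was read by malachite green at 620 nm against no-compound and no-acetyl-CoA controls.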

Structure (SMILES) | inhibition at 10 µM (human ACC2 (Nd)) [%] | inhibition at 10 µM (human ACC1) [%] | ACC2 10 μM inhibitory rate (%) (human ACC2 (Nd)) | ACC1 10 μM inhibitory rate (%) (human ACC1)
CC(=O)NC(C)c1cc2cc(OCc3ccc(OCC4CC4)nc3F)ccc2o1 (stereo not shown) [Example 153, N-[1-(5-{[6-(cyclopropylmethoxy)-2-fluoropyridin-3-yl]methoxy}-1-benzofuran-2-yl)ethyl]acetamide] | 70 | 24 | – | –
CC(=O)NC(C)c1cc2cc(OCc3cnc(OCC4CC4)cc3F)ccc2o1 (stereo not shown) [Example 154, N-[1-(5-{[6-(cyclopropylmethoxy)-4-fluoropyridin-3-yl]methoxy}-1-benzofuran-2-yl)ethyl]acetamide] | 78 | 39 | – | –
CC(=O)NC(C)c1coc2cc(OCc3ccc(OCC4CC4)nc3F)ccc12 (stereo not shown) [Example 164, N-[1-(6-{[6-(cyclopropylmethoxy)-2-fluoropyridin-3-yl]methoxy}-1-benzofuran-3-yl)ethyl]acetamide] | 93 | 50 | – | –
CSCCOc1ccc(CCc2ccc3cc(C(C)NC(C)=O)oc3c2)cc1 (stereo not shown) [Example 169, N-{1-[6-(2-{4-[2-(methylsulfanyl)ethoxy]phenyl}ethyl)-1-benzofuran-2-yl]ethyl}acetamide] | 75 | 23 | – | –
CC(=O)NC(C)c1cc2ccc(CCc3ccc(OC4CCCC4)cc3)cc2o1 (stereo not shown) [Example 170, N-[1-(6-{2-[4-(cyclopentyloxy)phenyl]ethyl}-1-benzofuran-2-yl)ethyl]acetamide] | 84 | 30 | – | –
CC(=O)NC(C)c1cc2ccc(CCc3ccc(OCCC4CC4)cc3)cc2o1 (stereo not shown) [Example 174, N-[1-(6-{2-[4-(2-cyclopropylethoxy)phenyl]ethyl}-1-benzofuran-2-yl)ethyl]acetamide] | 80 | 34 | – | –
CCOc1ccc(COc2ccc3cc(C(C)NC(C)=O)oc3c2)cc1Br (stereo not shown) [Example 175, N-(1-{6-[(3-bromo-4-ethoxybenzyl)oxy]-1-benzofuran-2-yl}ethyl)acetamide] | 74 | 15 | – | –
CC(Nc1ccon1)c1cc2ccc(CCc3ccc(OCC4CC4)cc3)cc2o1 (stereo not shown) [Example 176, N-[1-(6-{2-[4-(cyclopropylmethoxy)phenyl]ethyl}-1-benzofuran-2-yl)ethyl]isoxazol-3-amine] | 88 | 31 | – | –
CCCCOc1ccc(CCc2ccc3cc(C(C)NC(C)=O)oc3c2)cc1 (stereo not shown) [Example 189 (retention time shorter)] | – | – | 77 | 37
CCOc1ccc(CCc2ccc3cc(C(C)NC(C)=O)oc3c2)cc1 (stereo not shown) [Example 190 (retention time longer), N-(1-{6-[2-(4-ethoxyphenyl)ethyl]-1-benzofuran-2-yl}ethyl)acetamide] | 79 | 29 | – | –
CC(=O)NC(C)c1cc2ccc(CCc3ccc(OCC4CC4)cc3)cc2o1 (stereo not shown) [Example 191 (retention time shorter), N-[1-(6-{2-[4-(cyclopropylmethoxy)phenyl]ethyl}-1-benzofuran-2-yl)ethyl]acetamide] | – | – | 75 | 20
